Experimental data taken from ChEMBL document CHEMBL4837249, “Discovery of Potent Antiallergic Agents Based on an o-Aminopyridinyl Alkynyl Scaffold” (J Med Chem, 2021).

Tests used:
[1] = target: T1, Tyrosine-protein kinase Lck (Homo sapiens, UniProt P06239); assay: Inhibition of human full length recombinant LCK at 500 nM by radiometric scintillation counting analysis relative to control
[2] = target: Tyrosine-protein kinase Yes (Homo sapiens, UniProt P07947); assay: Inhibition of human full length recombinant Yes at 500 nM by radiometric scintillation counting analysis relative to control
Chain of Tyrosine-protein kinase Yes (P07947 2-543 limits assumed): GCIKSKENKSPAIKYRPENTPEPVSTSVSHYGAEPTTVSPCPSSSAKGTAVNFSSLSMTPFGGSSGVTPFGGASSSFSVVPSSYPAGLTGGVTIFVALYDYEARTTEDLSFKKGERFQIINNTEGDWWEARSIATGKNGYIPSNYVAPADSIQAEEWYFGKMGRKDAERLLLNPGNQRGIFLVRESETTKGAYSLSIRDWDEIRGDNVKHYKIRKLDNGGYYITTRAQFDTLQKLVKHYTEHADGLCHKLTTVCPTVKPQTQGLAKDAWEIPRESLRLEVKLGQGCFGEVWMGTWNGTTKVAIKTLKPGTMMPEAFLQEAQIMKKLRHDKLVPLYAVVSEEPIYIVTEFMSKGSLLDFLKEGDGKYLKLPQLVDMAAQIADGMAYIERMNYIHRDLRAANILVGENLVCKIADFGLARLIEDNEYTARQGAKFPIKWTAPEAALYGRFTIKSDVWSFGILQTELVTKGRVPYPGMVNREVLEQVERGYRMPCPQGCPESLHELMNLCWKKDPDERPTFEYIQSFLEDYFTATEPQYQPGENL

[3] = target: T2, Cytoplasmic tyrosine-protein kinase BMX (Homo sapiens) (UniProt P51813); assay: Inhibition of human full length recombinant Bmx at 500 nM by radiometric scintillation counting analysis relative to control
T2 sequence (whole entry): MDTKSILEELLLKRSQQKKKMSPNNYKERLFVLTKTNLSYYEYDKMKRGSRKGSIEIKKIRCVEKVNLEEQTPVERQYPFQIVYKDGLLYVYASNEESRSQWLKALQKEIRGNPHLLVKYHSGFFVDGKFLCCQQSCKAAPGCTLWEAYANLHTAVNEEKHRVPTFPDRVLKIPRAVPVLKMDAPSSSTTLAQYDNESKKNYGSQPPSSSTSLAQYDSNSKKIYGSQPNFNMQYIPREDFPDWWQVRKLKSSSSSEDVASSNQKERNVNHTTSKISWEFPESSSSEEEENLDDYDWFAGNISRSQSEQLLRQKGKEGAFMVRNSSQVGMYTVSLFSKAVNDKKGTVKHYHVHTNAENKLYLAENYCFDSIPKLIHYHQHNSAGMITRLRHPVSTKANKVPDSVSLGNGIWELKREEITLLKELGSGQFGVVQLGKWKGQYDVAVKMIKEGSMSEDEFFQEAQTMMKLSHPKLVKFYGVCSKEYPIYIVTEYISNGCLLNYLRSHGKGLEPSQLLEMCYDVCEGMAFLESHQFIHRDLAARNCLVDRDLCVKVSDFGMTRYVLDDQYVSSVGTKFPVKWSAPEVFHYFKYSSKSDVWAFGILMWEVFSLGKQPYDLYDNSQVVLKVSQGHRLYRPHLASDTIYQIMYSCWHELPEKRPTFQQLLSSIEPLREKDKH

[4] = target: T3, Tyrosine-protein kinase HCK (Homo sapiens, UniProt P08631); assay: Inhibition of human recombinant HCK (230 to 497) at 500 nM by radiometric scintillation counting analysis relative to control
T3 sequence (P08631 2-526 limits assumed): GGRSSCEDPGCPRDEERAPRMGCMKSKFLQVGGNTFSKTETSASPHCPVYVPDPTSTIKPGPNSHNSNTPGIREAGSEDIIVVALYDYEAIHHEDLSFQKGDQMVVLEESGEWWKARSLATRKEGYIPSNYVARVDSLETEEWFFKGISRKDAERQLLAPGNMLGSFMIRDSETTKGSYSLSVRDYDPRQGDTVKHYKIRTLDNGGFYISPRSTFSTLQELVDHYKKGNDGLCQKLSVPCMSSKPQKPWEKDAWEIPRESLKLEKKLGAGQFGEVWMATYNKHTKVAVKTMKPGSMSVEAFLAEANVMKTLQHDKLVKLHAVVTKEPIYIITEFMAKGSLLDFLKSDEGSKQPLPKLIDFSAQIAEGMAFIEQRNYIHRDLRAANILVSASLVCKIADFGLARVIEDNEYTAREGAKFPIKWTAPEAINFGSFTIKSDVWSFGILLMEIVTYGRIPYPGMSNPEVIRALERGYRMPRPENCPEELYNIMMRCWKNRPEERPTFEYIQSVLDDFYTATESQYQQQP

[5] = target: T3, Tyrosine-protein kinase HCK; assay: Inhibition of human recombinant HCK (230 to 497) at 50 nM by radiometric scintillation counting analysis relative to control
[6] = target: Protein-tyrosine kinase 6 (Homo sapiens) (UniProt Q13882); assay: Inhibition of human recombinant BRK (174 to 734) at 50 nM by radiometric scintillation counting analysis relative to control
Chain of Protein-tyrosine kinase 6 (Homo sapiens) (Q13882 whole entry, looked up): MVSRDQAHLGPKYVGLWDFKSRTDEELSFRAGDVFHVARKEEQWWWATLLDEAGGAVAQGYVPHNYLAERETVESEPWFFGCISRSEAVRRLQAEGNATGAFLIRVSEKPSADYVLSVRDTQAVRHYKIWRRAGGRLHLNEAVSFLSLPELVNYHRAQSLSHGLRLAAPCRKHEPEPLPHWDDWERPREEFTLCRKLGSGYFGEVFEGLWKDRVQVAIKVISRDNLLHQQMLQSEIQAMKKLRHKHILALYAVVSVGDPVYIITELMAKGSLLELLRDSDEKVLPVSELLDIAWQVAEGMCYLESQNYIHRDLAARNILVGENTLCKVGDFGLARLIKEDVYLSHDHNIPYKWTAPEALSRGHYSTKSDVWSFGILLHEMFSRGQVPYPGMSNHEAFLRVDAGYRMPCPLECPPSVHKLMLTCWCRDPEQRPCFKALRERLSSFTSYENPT

[7] = target: Tyrosine-protein kinase Lyn (Homo sapiens, UniProt P07948); assay: Inhibition of human full length recombinant LYN at 500 nM by radiometric scintillation counting analysis relative to control
Chain of Tyrosine-protein kinase Lyn (P07948 2-512 limits assumed): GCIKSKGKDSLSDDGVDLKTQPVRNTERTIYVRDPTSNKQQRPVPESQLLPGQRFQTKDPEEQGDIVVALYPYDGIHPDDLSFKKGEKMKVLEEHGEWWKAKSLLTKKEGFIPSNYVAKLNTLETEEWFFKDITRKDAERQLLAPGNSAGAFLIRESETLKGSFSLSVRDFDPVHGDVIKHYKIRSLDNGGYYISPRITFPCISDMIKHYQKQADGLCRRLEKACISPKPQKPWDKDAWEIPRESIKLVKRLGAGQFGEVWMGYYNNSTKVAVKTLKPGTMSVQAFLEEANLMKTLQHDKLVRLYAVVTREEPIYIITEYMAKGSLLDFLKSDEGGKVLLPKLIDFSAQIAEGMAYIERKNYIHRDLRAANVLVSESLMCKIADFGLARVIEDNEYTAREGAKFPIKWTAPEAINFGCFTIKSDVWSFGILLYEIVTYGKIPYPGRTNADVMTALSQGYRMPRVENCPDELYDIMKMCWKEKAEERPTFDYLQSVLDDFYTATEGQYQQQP

[8] = target: Tyrosine-protein kinase Srms (Homo sapiens, UniProt Q9H3Y6); assay: Inhibition of human SRMS at 50 nM by radiometric scintillation counting analysis relative to control
Chain of Tyrosine-protein kinase Srms (Q9H3Y6 whole entry): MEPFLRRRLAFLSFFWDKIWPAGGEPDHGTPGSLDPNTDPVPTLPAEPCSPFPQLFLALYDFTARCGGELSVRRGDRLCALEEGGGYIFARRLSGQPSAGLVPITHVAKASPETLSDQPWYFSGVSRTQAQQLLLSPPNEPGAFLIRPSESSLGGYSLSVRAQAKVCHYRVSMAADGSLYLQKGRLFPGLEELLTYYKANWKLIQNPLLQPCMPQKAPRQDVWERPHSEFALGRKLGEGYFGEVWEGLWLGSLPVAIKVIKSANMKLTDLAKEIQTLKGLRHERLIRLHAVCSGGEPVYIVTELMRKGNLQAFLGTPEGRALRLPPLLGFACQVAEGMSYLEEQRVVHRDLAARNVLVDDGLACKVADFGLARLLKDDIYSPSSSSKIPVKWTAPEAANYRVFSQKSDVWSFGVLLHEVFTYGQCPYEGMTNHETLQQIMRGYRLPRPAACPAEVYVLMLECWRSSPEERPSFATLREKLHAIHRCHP

[9] = target: Platelet-derived growth factor receptor beta (Homo sapiens) (UniProt P09619); assay: Inhibition of human recombinant PDGFRbeta (557 to end) at 50 nM by radiometric scintillation counting analysis relative to control
[10] = target: Platelet-derived growth factor receptor alpha (Homo sapiens) (UniProt P16234); assay: Inhibition of human recombinant PDGFRalpha (550 to end) at 50 nM by radiometric scintillation counting analysis relative to control
[11] = target: Proto-oncogene tyrosine-protein kinase Src (Homo sapiens, UniProt P12931); assay: Inhibition of human recombinant Src (1-530) at 500 nM by radiometric scintillation counting analysis relative to control
Chain of Proto-oncogene tyrosine-protein kinase Src (P12931 2-536 limits assumed): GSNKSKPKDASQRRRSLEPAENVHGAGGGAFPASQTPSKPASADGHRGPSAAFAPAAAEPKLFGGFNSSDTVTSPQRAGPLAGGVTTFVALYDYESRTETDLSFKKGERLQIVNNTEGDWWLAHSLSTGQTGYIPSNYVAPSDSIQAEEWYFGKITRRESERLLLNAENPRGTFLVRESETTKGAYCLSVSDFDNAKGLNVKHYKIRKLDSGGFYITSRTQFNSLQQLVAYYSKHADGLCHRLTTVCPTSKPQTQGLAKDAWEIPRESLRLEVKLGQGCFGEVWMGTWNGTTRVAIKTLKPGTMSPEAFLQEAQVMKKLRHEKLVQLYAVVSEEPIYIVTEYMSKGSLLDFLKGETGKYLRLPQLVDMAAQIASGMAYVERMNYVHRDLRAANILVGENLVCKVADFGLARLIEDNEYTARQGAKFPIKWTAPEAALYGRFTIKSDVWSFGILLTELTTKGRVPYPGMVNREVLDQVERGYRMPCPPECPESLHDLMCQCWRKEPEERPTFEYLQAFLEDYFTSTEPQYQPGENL

[12] = target: Tyrosine-protein kinase ABL1 (Homo sapiens, UniProt P00519); assay: Inhibition of human recombinant ABL1 using ATP/Ulight-TK peptide at 5 nM incubated for 15 mins relative to control
Chain of Tyrosine-protein kinase ABL1 (P00519 whole entry): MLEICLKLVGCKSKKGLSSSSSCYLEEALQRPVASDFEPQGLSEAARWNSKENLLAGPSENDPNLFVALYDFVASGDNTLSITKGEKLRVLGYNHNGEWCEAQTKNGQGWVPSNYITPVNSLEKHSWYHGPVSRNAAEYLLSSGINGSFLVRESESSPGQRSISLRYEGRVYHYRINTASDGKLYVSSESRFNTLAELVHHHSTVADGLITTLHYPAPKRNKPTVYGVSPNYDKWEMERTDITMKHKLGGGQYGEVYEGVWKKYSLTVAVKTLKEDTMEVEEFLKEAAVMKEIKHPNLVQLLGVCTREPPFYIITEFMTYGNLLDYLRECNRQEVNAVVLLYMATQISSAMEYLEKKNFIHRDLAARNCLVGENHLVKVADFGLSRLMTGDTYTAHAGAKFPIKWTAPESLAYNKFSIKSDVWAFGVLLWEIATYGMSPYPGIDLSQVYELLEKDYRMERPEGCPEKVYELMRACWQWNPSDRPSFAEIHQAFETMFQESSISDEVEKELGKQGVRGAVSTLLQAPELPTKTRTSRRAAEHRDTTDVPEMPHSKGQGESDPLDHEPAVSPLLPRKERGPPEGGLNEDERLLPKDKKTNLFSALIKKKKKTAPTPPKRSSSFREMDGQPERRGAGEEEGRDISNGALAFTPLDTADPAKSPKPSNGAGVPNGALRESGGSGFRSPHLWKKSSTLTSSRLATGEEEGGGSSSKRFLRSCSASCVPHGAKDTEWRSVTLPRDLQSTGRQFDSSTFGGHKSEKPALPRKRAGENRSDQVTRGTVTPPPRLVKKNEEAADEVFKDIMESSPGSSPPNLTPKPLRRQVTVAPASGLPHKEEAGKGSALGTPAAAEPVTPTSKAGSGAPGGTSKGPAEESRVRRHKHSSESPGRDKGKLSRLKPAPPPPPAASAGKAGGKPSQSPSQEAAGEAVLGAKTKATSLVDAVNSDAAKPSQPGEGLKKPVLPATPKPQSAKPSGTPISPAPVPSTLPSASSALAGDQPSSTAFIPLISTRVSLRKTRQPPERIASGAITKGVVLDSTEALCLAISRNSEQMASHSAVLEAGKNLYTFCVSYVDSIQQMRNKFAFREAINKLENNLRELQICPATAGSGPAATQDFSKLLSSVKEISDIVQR

[13] = target: T4, Tyrosine-protein kinase ZAP-70 (Homo sapiens) (UniProt P43403); assay: Inhibition of human full length recombinant ZAP70 at 5 nM by radiometric scintillation counting analysis relative to control
T4 sequence (whole entry): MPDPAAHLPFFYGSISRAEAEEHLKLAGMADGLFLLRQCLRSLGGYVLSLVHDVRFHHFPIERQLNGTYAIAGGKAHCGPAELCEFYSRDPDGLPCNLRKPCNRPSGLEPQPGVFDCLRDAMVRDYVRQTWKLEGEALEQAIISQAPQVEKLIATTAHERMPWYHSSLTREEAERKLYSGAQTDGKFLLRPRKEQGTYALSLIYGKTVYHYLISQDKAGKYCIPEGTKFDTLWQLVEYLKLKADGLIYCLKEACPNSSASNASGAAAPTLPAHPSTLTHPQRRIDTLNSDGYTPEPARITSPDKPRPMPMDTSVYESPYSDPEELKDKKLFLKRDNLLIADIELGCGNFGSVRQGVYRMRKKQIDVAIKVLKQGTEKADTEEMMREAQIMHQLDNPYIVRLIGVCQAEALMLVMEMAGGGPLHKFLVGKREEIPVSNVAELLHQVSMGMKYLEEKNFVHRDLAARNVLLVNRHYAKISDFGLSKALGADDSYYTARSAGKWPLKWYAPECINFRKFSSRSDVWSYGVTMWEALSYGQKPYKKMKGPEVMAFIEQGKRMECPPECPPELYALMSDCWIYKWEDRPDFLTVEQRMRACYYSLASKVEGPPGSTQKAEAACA

[14] = target: T1, Tyrosine-protein kinase Lck; assay: Inhibition of human full length recombinant LCK at 5 nM by radiometric scintillation counting analysis relative to control
[15] = target: Tyrosine-protein kinase BTK (Homo sapiens) (UniProt Q06187); assay: Inhibition of human full length recombinant BTK at 50 nM by radiometric scintillation counting analysis relative to control
[16] = target: Protein-tyrosine kinase 6 (Homo sapiens) (UniProt Q13882); assay: Inhibition of human recombinant BRK (174 to 734) at 500 nM by radiometric scintillation counting analysis relative to control

T1 sequence (P06239 2-509 limits assumed): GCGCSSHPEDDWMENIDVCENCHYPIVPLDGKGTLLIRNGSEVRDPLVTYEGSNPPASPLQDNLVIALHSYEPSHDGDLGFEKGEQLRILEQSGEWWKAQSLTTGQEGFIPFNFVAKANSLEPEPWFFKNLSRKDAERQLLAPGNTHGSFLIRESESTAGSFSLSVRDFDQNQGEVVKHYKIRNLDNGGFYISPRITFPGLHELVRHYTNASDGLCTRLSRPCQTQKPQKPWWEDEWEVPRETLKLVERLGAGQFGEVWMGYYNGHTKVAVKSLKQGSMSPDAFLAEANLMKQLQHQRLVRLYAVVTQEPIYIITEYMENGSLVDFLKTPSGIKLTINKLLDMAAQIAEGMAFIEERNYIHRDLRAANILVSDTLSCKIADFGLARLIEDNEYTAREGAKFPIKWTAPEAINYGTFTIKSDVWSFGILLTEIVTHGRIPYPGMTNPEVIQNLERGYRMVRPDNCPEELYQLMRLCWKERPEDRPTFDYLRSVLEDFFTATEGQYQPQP

| SMILES | inhibition [1] [%] | inhibition [2] [%] | inhibition [3] [%] | inhibition [4] [%] | inhibition [5] [%] | inhibition [6] [%] | inhibition [7] [%] | inhibition [8] [%] | inhibition [9] [%] | inhibition [10] [%] | inhibition [11] [%] | inhibition [12] [%] | inhibition [13] [%] | inhibition [14] [%] | inhibition [15] [%] | inhibition [16] [%] |
| --- | --- | --- | --- | --- | --- | --- | --- | --- | --- | --- | --- | --- | --- | --- | --- | --- |
| Cc1ccc(C(=O)Nc2ccc(Cl)cc2Cl)cc1C#Cc1cc(-c2cnn(C)c2)cnc1N | 92 | 39 | 23 | 89 | 64 | 39 | 105 | 19 | 54 | 21 | 79 | 32 | 20 | 27 | 8 | 85 |
| Cc1ccc(C(=O)Nc2cc(C(F)(F)F)cc(C(F)(F)F)c2)cc1C#Cc1cc(-c2cnn(C)c2)cnc1N | 77 | 98 | 89 | 97 | 92 | 1 | 96 | 51 | 6 | 1 | 92 | 22 | 9 | 26 | 27 | 22 |
| Cc1ccc(C(=O)Nc2ccc(OC(F)(F)F)cc2)cc1C#Cc1cc(-c2cnn(C)c2)cnc1N | 98 | 94 | 20 | 93 | 92 | 52 | 99 | 22 | 13 | 32 | 96 | 58 | -7 | 42 | – | 92 |
